Laboratory results: patent US20230149303A1, “BUCCAL AND ENTERIC DELIVERY OF FATTY ACIDS IN FOODS AND BEVERAGES” (priority 2020, published 2023)
Read-outs that look alike come from different tables or passages of the source.

What was measured:
[1] = test system: CB2 receptors; experiment: estimated affinity relative to CBD; type: binding
From the text: Because CB2 receptors have a low affinity for CBD, large doses of CBD have increasingly advantageous pharmacological effects. However, CBD is relatively expensive, so the ratio of CBD to other components is more prone to cost/efficacy trade-offs than other components of the formulation. Alternatives can skimp on CBD and even drop the ratio of CBD-to-caffeine below the recommended 1:1 ratio, which should have acceptable effects so long as the caffeine is not in such a high dosage that it causes jitters.
A greater proportion of CBD may be desirable for the purpose of binding to theorized CBD3 receptors or other presently poorly defined receptors with less affinity for CBD. A high dose of CBD, over 100 mg up to less than 250 mg can have a sedative effect that may be effective for certain individuals, though it is unlikely desirable to reach 250 mg, which is approaching the liver enzyme inhibition dose. Although, currently marketed energy drinks have as much as 250 mg caffeine, it would be difficult to fit that much caffeine into a nurdle while maintaining a 1:1 ratio of CBD-to-caffeine (not to mention the 1:2 ratio of caffeine-to-theanine), so the upper ranges of CBD become largely irrelevant in this particular product due to volumetric constraints. […]

[2] = target: T1, TrpV1 receptor (Homo sapiens, UniProt Q8NER1); conditions: absorbed through mucosa; cited from earlier work
T1 construct: It typically takes over 20 minutes for CBD absorbed through mucosa to provide significant pain relief; from tissue; host or cells: oral mucosa / body of the user (in vivo)

[3] = cited from earlier work
[4] = bioavailability after oral, mucosal/buccal or enteric delivery; type: in vivo
Description: B6 helps the body produce neurotransmitters (e.g., serotonin); it can block glutamate and help the brain learn to calm. […] B6 can also be delivered enterically with nearly 100% bioavailability, as well.
In a specific implementation, microencapsulated CBD is provided as an analgesic in an edible toothpaste. In this specific implementation, 20 mg of the CBD is microencapsulated for buccal delivery to act as a localized analgesic in the mouth. CBD is degraded in the stomach but, as was discussed above, CBD is readily absorbed in mucosa. Although it is recognized not all patients will follow best practices, bioavailability estimates assume the amount of time spent brushing is 2 minutes, which is the time span over which the edible toothpaste remains in the mouth and which is long enough to make almost all of CBD formulated for buccal delivery bioavailable. Accordingly, when the product is used as directed, the CBD remains in the mouth long enough to achieve over 90% bioavailability. Thus, the amount of buccally delivered CBD can be added to that of enterically delivered CBD to determine a total systemic dose.
As with the edible toothpaste described above, a first portion of the CBD is formulated for buccal delivery and a second portion of the CBD is formulated for enteric delivery. […] CBD is degraded in the stomach but, as was discussed above, CBD is readily absorbed in mucosa. […]

[5] = in vivo; cited from earlier work
[6] = mucosal quick release, retained in the mouth for several seconds; cited from earlier work

T1 sequence (Q8NER1 whole entry): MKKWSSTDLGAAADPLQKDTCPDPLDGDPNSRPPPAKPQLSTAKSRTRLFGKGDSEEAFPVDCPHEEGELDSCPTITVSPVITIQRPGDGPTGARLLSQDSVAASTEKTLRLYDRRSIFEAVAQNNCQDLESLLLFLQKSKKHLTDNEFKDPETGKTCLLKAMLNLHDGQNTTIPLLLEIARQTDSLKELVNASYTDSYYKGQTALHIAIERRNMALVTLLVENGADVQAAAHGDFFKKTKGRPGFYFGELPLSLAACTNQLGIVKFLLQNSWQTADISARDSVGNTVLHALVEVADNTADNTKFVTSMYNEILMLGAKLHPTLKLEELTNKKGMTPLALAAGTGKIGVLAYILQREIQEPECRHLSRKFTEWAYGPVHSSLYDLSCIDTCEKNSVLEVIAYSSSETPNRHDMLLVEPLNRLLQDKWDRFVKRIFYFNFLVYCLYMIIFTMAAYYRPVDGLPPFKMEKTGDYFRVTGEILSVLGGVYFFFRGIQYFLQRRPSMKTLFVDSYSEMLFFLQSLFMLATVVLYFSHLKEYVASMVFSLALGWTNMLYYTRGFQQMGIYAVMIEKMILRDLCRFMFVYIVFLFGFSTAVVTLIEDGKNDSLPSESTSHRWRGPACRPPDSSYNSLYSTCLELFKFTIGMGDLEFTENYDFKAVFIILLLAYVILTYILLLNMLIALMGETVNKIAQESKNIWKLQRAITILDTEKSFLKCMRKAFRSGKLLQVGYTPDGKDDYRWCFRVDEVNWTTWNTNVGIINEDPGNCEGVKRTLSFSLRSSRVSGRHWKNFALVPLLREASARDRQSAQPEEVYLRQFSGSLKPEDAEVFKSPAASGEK

## 2-Lineoleoyl-glycerol
[1]
  affinity relative to CBD: ~1,000 times

## 2-Palmitolyl-glycerol
[1]
  affinity relative to CBD: ~1,000 times

## C=C(C)[C@@H]1CCC(C)=C[C@H]1c1c(O)cc(CCCCC)cc1O [CBD]
[2]
  time to provide significant pain relief: over 20 minutes
[3]; frequent user
  half-life in the bloodstream: 120 to 312 h
[3]; infrequent user
  half-life in the bloodstream: about 1.3 days
[4]; buccal delivery from edible toothpaste, estimate assumes 2 minutes brushing
  bioavailability: over 90%
[4]; buccal delivery from mouthwash, estimate assumes 30 seconds to one minute in the mouth
  bioavailability: over 90%

## CC1CCC(C(C)C)C(O)C1 (stereo not drawn) [menthol]
[5]
  lethal dose: ≥ 50 mg/kg

## CCCCCCCCCCCCCCCC(=O)OCc1cnc(C)c(OC(=O)CCCCCCCCCCCCCCC)c1COC(=O)CCCCCCCCCCCCCCC [pyridoxine tripalmitate]
[6]
  bioavailable: over 90%
